Measured values as given in patent publication US7906655B2, “Hepatitis C virus inhibitors” (Bristol-Myers Squibb Company, priority 2008, dated 2011).

Test system: HCV 1b genotype
Test: HCV Replicon assay (HCV-neo replicon cells, wild-type)
Assay type: cell-based
Settings: HCV 1b genotype replicon
Method: An HCV Replicon assay was utilized in the present disclosure, and was prepared, conducted and validated as described in commonly owned PCT/US2006/022197 and in O'Boyle et. al. Antimicrob Agents Chemother. 2005 April; 49 (4):1346-53. Assay methods incorporating luciferase reporters have also been used as described (Apath.com).
HCV-neo replicon cells and replicon cells containing mutations in the NS5A region were used to test the currently described family of compounds. The compounds were determined to have more than 10-fold less inhibitory activity on cells containing mutations than wild-type cells. Thus, the compounds of the present disclosure can be effective in inhibiting the function of the HCV NS5A protein and are understood to be as effective in combinations as previously described in application PCT/US2006/022197 and commonly owned WO/O4014852. Further, the compounds of the present disclosure can be effective against the HCV 1b genotype. It should also be understood that the compounds of the present disclosure can inhibit multiple genotypes of HCV. […] In one embodiment, compounds of the present disclosure are inhibitory versus 1a, 1b, 2a, 2b, 3a, 4a, and 5a genotypes.

[1] = Hepatitis C virus, numeric values
[2] = Hepatitis C virus, class symbols

Question: With `COC(=O)N[C@H](C(=O)N1CCC[C@H]1c1nc2cc(-c3cnc(-c4cccc5[nH]c([C@@H]6CCCN6C(=O)[C@@H](NC(=O)OC)C(C)C)nc45)o3)ccc2[nH]1)C(C)C` [Example J10, methyl ((1S)-1-(((2S)-2-(4-(5-(2-((2S)-1-((2S)-2-(methoxy-carbonyl)amino)-3-methyl-butanoyl)-2-pyrrolidinyl)-1H-benzimidazol-5-yl)-1,3-oxazol-2-yl)-1H-benzimidazol-2-yl)-1-pyrrolidinyl)carbonyl)-2-methylpropyl) carbamate] as the compound, how does the EC50 [1] read?
Answer: Its EC50 is 0.007 nM.

Question: With `CN(C)[C@@H](C(=O)N1CCC[C@H]1c1nc2cc(-c3cnc(-c4cccc5[nH]c([C@@H]6CCCN6C(=O)[C@@H](c6ccccc6)N(C)C)nc45)o3)ccc2[nH]1)c1ccccc1` [Example J11, (1R)-2-((2S)-2-(4-(5-(2-((2S)-1-((2R)-2-(dimethyl-amino)-2-phenylacetyl)-2-pyrrolidinyl)-1H-benzimidazol-5-yl)-1,3-oxazol-2-yl)-1H-benzimidazol-2-yl)-1-pyrrolidinyl)-N,N-dimethyl-2-oxo-1-phenyl-ethanamine] as the compound, how does the EC50 [2] read?
Answer: The EC50 was < 4.57 nM.

Question: With `CC(=O)N[C@@H](C(=O)N1CCC[C@H]1c1nc2cc(-c3cnc(-c4cccc5[nH]c([C@@H]6CCCN6C(=O)[C@@H](c6ccccc6)N(C)C)nc45)o3)ccc2[nH]1)c1ccccc1` [Example J11.1, N-((1R)-2-((2S)-2-(5-(2-(2-((2S)-1-((2R)-2-(dimethyl-amino)-2-phenylacetyl)-2-pyrrolidinyl)-1H-benzimidazol-4-yl)-1,3-oxazol-5-yl)-1H-benzimidazol-2-yl)-1-pyrrolidinyl)-2-oxo-1-phenylethyl) acetamide] as the compound, how does the EC50 [2] read?
Answer: Its EC50 is < 4.57 nM.

Question: For `CC(=O)N[C@H](C(=O)N1CCC[C@H]1c1nc2cc(-c3cnc(-c4cccc5[nH]c([C@@H]6CCCN6C(=O)[C@@H](c6ccccc6)N(C)C)nc45)o3)ccc2[nH]1)c1ccccc1` [Example J11.2, N-((1S)-2-((2S)-2-(5-(2-(2-((2S)-1-((2R)-2-(dimethyl-amino)-2-phenylacetyl)-2-pyrrolidinyl)-1H-benzimidazol-4-yl)-1,3-oxazol-5-yl)-1H-benzimidazol-2-yl)-1-pyrrolidinyl)-2-oxo-1-phenylethyl) acetamide], which EC50 [2] is on record?
Answer: The EC50 was < 4.57 nM.

Question: `CC(=O)N[C@@H](C(=O)N1CCC[C@H]1c1nc2cc(-c3cnc(-c4cccc5[nH]c([C@@H]6CCCN6C(=O)[C@H](NC(C)=O)c6ccccc6)nc45)o3)ccc2[nH]1)c1ccccc1` [Example J12, N-((1R)-2-((2S)-2-(4-(5-(2-((2S)-1-((2R)-2-acetamido-2-phenylacetyl)-2-pyrrolidinyl)-1H-benzimidazol-5-yl)-1,3-oxazol-2-yl)-1H-benzimidazol-2-yl)-1-pyrrolidinyl)-2-oxo-1-phenylethyl) acetamide] was tested. Which EC50 [2] did it give?
Answer: The EC50 was < 4.57 nM.

Question: With `O=C(C(c1ccccc1)N1CCC(O)CC1)N1CCC[C@H]1c1nc2cc(-c3cnc(-c4cccc5[nH]c([C@@H]6CCCN6C(=O)C(c6ccccc6)N6CCC(O)CC6)nc45)o3)ccc2[nH]1` (stereo partly drawn) [Example J13, 1-(2-((2S)-2-(4-(5-(2-((2S)-1-((4-hydroxy-1-piperidinyl) (phenyl)acetyl)-2-pyrrolidinyl)-1H-benzimidazol-5-yl)-1,3-oxazol-2-yl)-1H-benzimidazol-2-yl)-1-pyrrolidinyl)-2-oxo-1-phenylethyl)-4-piperidinol] as the compound, how does the EC50 [2] read?
Answer: Its EC50 is < 4.57 nM.

Question: Which EC50 [2] does the source give for `CN1CCN([C@@H](C(=O)N2CCC[C@H]2c2nc3cc(-c4cnc(-c5cccc6[nH]c([C@@H]7CCCN7C(=O)[C@@H](c7ccccc7)N7CCN(C)CC7)nc56)o4)ccc3[nH]2)c2ccccc2)CC1` [Example J14, 2-((2S)-1-((2R)-2-(4-methyl-1-piperazinyl)-2-phenylacetyl)-2-pyrrolidinyl)-4-(5-(2-((2S)-1-((2R)-2-(4-methyl-1-piperazinyl)-2-phenylacetyl)-2-pyrrolidinyl)-1H-benzimidazol-5-yl)-1,3-oxazol-2-yl)-1H-benzimidazole] here?
Answer: The EC50 was < 4.57 nM.

Question: Which EC50 [2] does the source give for `CN1CCN(C(C(=O)N2CCC[C@H]2c2nc3cc(-c4cnc(-c5cccc6[nH]c([C@@H]7CCCN7C(=O)C(c7ccccc7)N7CCN(C)CC7)nc56)o4)ccc3[nH]2)c2ccccc2)CC1` (stereo partly drawn) [Example J14.1, 2-((2S)-1-((4-methyl-1-piperazinyl) (phenyl)acetyl)-2-pyrrolidinyl)-4-(5-(2-((2S)-1-((4-methyl-1-piperazinyl) (phenyl)acetyl)-2-pyrrolidinyl)-1H-benzimidazol-5-yl)-1,3-oxazol-2-yl)-1H-benzimidazole] here?
Answer: The EC50 was 4.57 to 99 nM.

Question: Which EC50 [1] does the source give for `COc1cccc2c(C(=O)N3CCC[C@H]3c3nc4cc(-c5cnc(-c6cccc7[nH]c([C@@H]8CCCN8C(=O)c8nc(Cl)cc9c(OC)cccc89)nc67)o5)ccc4[nH]3)nc(Cl)cc12` [Example J15, 3-chloro-1-(((2S)-2-(4-(5-(2-((2S)-1-((3-chloro-5-methoxy-1-isoquinolinyl)carbonyl)-2-pyrrolidinyl)-1H-benzimidazol-5-yl)-1,3-oxazol-2-yl)-1H-benzimidazol-2-yl)-1-pyrrolidinyl)carbonyl)-5-methoxy-isoquinoline] here?
Answer: Its EC50 is > 10000 nM.

Question: Which EC50 [2] does the source give for `O=C(Cc1ccccc1)N1CCC[C@H]1c1nc2cc(-c3cnc(-c4ccc5nc([C@@H]6CCCN6C(=O)Cc6ccccc6)[nH]c5c4)o3)ccc2[nH]1` [Example J16] here?
Answer: The EC50 was 4.57 to 99 nM.

Question: Which EC50 [2] does the source give for `O=C([C@H](O)c1ccccc1)N1CCC[C@H]1c1nc2cc(-c3cnc(-c4ccc5nc([C@@H]6CCCN6C(=O)[C@H](O)c6ccccc6)[nH]c5c4)o3)ccc2[nH]1` [Example J17, (1R)-2-((2S)-2-(5-(2-(2-((2S)-1-((2R)-2-hydroxy-2-phenylacetyl)-2-pyrrolidinyl)-1H-benzimidazol-6-yl)-1,3-oxazol-5-yl)-1H-benzimidazol-2-yl)-1-pyrrolidinyl)-2-oxo-1-phenylethanol] here?
Answer: The EC50 was < 4.57 nM.

Question: `C[C@@](O)(C(=O)N1CCC[C@H]1c1nc2cc(-c3cnc(-c4ccc5nc([C@@H]6CCCN6C(=O)[C@@](C)(O)c6ccccc6)[nH]c5c4)o3)ccc2[nH]1)c1ccccc1` [Example J18, (2S)-1-((2S)-2-(5-(2-(2-((2S)-1-((2S)-2-hydroxy-2-phenyl-propanoyl)-2-pyrrolidinyl)-1H-benzimidazol-6-yl)-1,3-oxazol-5-yl)-1H-benzimidazol-2-yl)-1-pyrrolidinyl)-1-oxo-2-phenyl-2-propanol] was tested. Which EC50 [2] did it give?
Answer: The EC50 was < 4.57 nM.

Question: For `COC(=O)N[C@H](C(=O)N1CCC[C@H]1c1nc2cc(-c3cnc(-c4ccc5[nH]c([C@@H]6CCCN6C(=O)[C@@H](NC(=O)OC)C(C)C)nc5c4)o3)ccc2[nH]1)C(C)C` [Example J19, methyl ((1S)-1-(((2S)-2-(5-(2-(2-((2S)-1-((2S)-2-((methoxy-carbonyl)amino)-3-methyl-butanoyl)-2-pyrrolidinyl)-1H-benzimidazol-5-yl)-1,3-oxazol-5-yl)-1H-benzimidazol-2-yl)-1-pyrrolidinyl)carbonyl)-2-methylpropyl) carbamate], which EC50 (class symbols) is on record?
Answer: The EC50 was < 4.57 nM.

Question: Which EC50 [2] does the source give for `CN(C)[C@@H](C(=O)N1CCC[C@H]1c1nc2cc(-c3cnc(-c4ccc5nc([C@@H]6CCCN6C(=O)[C@@H](c6ccccc6)N(C)C)[nH]c5c4)o3)ccc2[nH]1)c1ccccc1` [Example J20, (1R)-2-((2S)-2-(5-(2-(2-((2S)-1-((2R)-2-(dimethyl-amino)-2-phenylacetyl)-2-pyrrolidinyl)-1H-benzimidazol-6-yl)-1,3-oxazol-5-yl)-1H-benzimidazol-2-yl)-1-pyrrolidinyl)-N,N-dimethyl-2-oxo-1-phenyl-ethanamine] here?
Answer: The EC50 was < 4.57 nM.

Question: `CC(=O)N[C@@H](C(=O)N1CCC[C@H]1c1nc2cc(-c3cnc(-c4ccc5nc([C@@H]6CCCN6C(=O)[C@H](NC(C)=O)c6ccccc6)[nH]c5c4)o3)ccc2[nH]1)c1ccccc1` [Example J21, N-((1R)-2-((2S)-2-(5-(2-(2-((2S)-1-((2R)-2-acetamido-2-phenylacetyl)-2-pyrrolidinyl)-1H-benzimidazol-6-yl)-1,3-oxazol-5-yl)-1H-benzimidazol-2-yl)-1-pyrrolidinyl)-2-oxo-1-phenylethyl) acetamide] was tested. Which EC50 [2] did it give?
Answer: The EC50 was < 4.57 nM.

Question: For `COc1cccc2c(C(=O)N3CCC[C@H]3c3nc4cc(-c5cnc(-c6ccc7nc([C@@H]8CCCN8C(=O)c8nc(Cl)cc9c(OC)cccc89)[nH]c7c6)o5)ccc4[nH]3)nc(Cl)cc12` [Example J22, 3-chloro-1-(((2S)-2-(5-(2-(2-((2S)-1-((3-chloro-5-methoxy-1-isoquinolinyl)carbonyl)-2-pyrrolidinyl)-1H-benzimidazol-6-yl)-1,3-oxazol-5-yl)-1H-benzimidazol-2-yl)-1-pyrrolidinyl)carbonyl)-5-methoxy-isoquinoline], which EC50 [2] is on record?
Answer: Its EC50 is 1000 to 10000 nM.

Question: How did the EC50 [2] turn out when `CN(C)[C@@H](C(=O)N1CCC[C@H]1c1nc2cc(-c3cnc(-c4ccc5nc([C@@H]6C[C@@H]7C[C@@H]7N6C(=O)[C@@H](c6ccccc6)N(C)C)[nH]c5c4)o3)ccc2[nH]1)c1ccccc1` [Example J23, (1R)-2-((2S)-2-(5-(2-(2-((1S,3S,5S)-2-((2R)-2-(dimethyl-amino)-2-phenylacetyl)-2-azabicyclo[3. 1.0]hex-3-yl)-1H-benzimidazol-5-yl)-1,3-oxazol-5-yl)-1H-benzimidazol-2-yl)-1-pyrrolidinyl)-N,N-dimethyl-2-oxo-1-phenyl-ethanamine] was run?
Answer: The EC50 was < 4.57 nM.

Question: With `CC(=O)N[C@@H](C(=O)N1CCC[C@H]1c1nc2cc(-c3cnc(-c4ccc5nc([C@@H]6C[C@@H]7C[C@@H]7N6C(=O)[C@H](NC(C)=O)c6ccccc6)[nH]c5c4)o3)ccc2[nH]1)c1ccccc1` [Example J24, N-((1R)-2-((2S)-2-(5-(2-(2-((1S,3S,5S)-2-((2R)-2-acetamido-2-phenylacetyl)-2-azabicyclo[3. 1.0]hex-3-yl)-1H-benzimidazol-5-yl)-1,3-oxazol-5-yl)-1H-benzimidazol-2-yl)-1-pyrrolidinyl)-2-oxo-1-phenylethyl) acetamide] as the compound, how does the EC50 [2] read?
Answer: Its EC50 is < 4.57 nM.
